Patent US20240109917A1 (ACTELION PHARMACEUTICALS LTD, priority 2020, published 2024)

Experiments:
VEGFR2, unphosphorylated = VEGFR2, unphosphorylated (Homo sapiens (Human), UniProt P35968); assay: VEGFR ADP GLO Assay; assay type: biochemical
[1] = biological target: Tb-labeled inactive PDGFRβ (Homo sapiens (Human), UniProt P09619); assay: PDGFRβ LanthaScreen Assay; assay type: binding; settings: read-out: PDGFR Lantha IC50
PDGFRβ = PDGFRβ (Rattus norvegicus (Rat), UniProt Q05030); assay: PDGFRβ Cellular Assay (PDGFRb P-Y751 HTRF in A10 cells stimulated with PDGF-BB); assay type: cell-based; settings: read-out: PDGFR Cellular IC50
Sequence of PDGFRβ (Q05030 32-1097): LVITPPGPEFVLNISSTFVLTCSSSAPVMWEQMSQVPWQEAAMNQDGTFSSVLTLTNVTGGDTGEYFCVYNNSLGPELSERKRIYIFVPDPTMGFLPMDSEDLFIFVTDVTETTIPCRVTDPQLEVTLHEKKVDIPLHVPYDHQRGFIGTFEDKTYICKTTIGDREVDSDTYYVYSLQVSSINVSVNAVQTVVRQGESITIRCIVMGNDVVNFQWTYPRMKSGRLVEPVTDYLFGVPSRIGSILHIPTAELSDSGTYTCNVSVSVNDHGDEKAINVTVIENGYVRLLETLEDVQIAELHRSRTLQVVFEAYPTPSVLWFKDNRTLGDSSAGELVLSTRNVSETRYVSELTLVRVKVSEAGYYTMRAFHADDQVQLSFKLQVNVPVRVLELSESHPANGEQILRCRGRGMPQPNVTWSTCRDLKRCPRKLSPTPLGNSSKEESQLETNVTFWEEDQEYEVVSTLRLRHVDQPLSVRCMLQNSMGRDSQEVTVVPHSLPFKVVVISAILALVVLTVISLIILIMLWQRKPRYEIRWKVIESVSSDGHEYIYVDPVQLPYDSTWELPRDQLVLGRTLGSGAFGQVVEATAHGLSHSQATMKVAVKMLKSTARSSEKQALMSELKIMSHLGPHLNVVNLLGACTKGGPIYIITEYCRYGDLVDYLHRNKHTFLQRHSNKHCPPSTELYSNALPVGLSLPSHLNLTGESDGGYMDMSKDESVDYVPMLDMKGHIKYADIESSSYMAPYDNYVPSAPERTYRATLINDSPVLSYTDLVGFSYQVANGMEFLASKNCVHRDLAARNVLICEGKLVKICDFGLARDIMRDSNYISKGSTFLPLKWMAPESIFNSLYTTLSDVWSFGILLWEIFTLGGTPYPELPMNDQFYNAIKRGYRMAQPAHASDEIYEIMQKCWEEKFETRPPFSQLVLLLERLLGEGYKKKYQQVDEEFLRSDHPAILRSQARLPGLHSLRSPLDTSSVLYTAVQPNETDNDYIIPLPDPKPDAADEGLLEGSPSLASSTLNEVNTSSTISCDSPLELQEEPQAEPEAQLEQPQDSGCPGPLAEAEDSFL
Outline: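 Phospho-Y751 PDGFRβ was measured by HTRF in lysates of A10 rat cells. Cells received compound for 3 hours before PDGF-BB stimulation (100 ng/mL working stock).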

Sequence of Tb-labeled inactive PDGFRβ (P09619 33-1106): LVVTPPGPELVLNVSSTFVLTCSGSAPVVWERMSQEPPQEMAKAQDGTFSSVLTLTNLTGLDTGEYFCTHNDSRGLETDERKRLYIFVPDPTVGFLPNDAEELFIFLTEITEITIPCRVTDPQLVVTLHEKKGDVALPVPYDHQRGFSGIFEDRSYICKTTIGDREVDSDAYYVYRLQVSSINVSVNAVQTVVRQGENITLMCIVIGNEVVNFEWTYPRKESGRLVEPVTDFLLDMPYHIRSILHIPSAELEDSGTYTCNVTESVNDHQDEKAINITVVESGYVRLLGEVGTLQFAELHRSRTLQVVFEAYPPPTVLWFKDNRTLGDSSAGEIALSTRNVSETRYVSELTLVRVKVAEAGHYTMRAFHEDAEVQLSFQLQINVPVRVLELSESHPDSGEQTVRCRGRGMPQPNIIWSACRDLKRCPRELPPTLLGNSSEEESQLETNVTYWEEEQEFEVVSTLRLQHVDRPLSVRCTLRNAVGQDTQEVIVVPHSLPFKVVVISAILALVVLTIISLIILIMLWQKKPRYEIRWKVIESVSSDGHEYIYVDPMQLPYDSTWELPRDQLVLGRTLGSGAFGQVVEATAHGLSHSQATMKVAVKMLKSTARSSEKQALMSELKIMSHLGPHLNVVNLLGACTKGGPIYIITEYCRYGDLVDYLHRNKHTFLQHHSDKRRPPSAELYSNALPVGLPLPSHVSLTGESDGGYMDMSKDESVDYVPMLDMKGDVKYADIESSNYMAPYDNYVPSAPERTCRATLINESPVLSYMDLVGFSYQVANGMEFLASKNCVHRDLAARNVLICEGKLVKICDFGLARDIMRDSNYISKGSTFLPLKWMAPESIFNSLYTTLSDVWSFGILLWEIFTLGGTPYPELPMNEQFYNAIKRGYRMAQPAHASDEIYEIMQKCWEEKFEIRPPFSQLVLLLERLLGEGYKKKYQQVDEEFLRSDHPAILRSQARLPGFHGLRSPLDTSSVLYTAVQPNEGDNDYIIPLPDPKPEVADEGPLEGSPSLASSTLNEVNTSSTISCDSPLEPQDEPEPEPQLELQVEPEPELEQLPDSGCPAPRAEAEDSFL
Sequence of VEGFR2, unphosphorylated (P35968 20-1356): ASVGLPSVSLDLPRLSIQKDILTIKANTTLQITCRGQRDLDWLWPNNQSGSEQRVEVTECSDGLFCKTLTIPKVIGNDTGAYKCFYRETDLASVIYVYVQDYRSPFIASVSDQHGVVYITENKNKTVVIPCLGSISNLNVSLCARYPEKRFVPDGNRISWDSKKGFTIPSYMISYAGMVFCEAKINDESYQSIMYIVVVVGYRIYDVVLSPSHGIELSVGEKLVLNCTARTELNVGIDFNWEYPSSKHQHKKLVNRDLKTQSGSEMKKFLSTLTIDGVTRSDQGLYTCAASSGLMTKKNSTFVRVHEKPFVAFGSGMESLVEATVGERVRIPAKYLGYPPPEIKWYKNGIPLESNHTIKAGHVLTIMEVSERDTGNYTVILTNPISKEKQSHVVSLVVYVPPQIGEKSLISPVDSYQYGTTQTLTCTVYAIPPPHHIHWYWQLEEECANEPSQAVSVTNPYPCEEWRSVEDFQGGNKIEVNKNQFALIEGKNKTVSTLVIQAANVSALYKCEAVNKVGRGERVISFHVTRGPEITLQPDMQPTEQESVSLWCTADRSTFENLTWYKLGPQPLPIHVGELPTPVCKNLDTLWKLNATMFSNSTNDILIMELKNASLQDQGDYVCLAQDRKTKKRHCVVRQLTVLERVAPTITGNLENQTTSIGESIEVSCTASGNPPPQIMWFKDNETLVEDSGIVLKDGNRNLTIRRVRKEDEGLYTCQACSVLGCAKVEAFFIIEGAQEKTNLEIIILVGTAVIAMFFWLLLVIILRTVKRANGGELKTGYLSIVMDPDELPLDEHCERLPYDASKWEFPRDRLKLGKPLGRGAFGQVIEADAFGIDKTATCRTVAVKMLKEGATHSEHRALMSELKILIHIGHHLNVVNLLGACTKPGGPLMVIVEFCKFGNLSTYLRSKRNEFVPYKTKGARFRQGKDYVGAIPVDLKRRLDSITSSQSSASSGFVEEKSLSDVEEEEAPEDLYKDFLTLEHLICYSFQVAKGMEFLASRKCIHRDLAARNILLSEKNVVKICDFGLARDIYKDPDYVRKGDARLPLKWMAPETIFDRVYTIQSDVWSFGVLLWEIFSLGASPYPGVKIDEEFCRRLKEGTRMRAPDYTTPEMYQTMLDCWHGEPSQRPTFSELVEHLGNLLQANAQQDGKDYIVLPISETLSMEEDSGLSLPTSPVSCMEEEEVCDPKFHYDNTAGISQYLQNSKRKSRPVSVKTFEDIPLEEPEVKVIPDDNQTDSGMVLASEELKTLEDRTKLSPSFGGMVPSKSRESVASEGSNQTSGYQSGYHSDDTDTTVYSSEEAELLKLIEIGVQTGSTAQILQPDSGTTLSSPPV

Structure (SMILES) | IC50 (VEGFR2, unphosphorylated) | IC50 [1] | IC50 (PDGFRβ)
Cc1ncc(NC(=O)CN2CCCCCC2)cc1NC(=O)c1cnn2cc(-c3cnn4c3OCCC4)sc12 [Example 420, N-(5-(2-(azepan-1-yl)acetamido)-2-methylpyridin-3-yl)-2-(6,7-dihydro-5H-pyrazolo[5,1-b][1,3]oxazin-3-yl)pyrazolo[5,1-b]thiazole-7-carboxamide] | > 7500 nM | 2.1 nM | 2.1 nM
Cc1ncc(NC(=O)CN2CC(C)(C)C2)cc1NC(=O)c1cnn2cc(-c3cn(C)nc3C)sc12 [Example 430, 2-(1,3-Dimethyl-1H-pyrazol-4-yl)-N-(5-(2-(3,3-dimethylazetidin-1-yl)acetamido)-2-methylpyridin-3-yl)pyrazolo[5,1-b]thiazole-7-carboxamide] | 5170 nM | 1.8 nM | 1 nM
CCOc1ncccc1-c1cn2ncc(C(=O)Nc3cc(NC(=O)CN4CC(C)(C)C4)cnc3C)c2s1 [Example 436, N-(5-(2-(3,3-Dimethylazetidin-1-yl)acetamido)-2-methylpyridin-3-yl)-2-(2-ethoxypyridin-3-yl)pyrazolo[5,1-b]thiazole-7-carboxamide] | 4300 nM | 0.9 nM | 1.6 nM
COCCn1cc(-c2cn3ncc(C(=O)Nc4cc(NC(=O)CCC5CCCN5C)cnc4C)c3s2)cn1 (stereo not drawn) [Example 462, 2-(1-(2-methoxyethyl)-1H-pyrazol-4-yl)-N-(2-methyl-5-(3-(1-methylpyrrolidin-2-yl)propanamido)pyridin-3-yl)pyrazolo[5,1-b]thiazole-7-carboxamide] | > 7500 nM | 15.3 nM | 298 nM
Cc1ncc(NC(=O)CN2CC(C)(C)C2)cc1NC(=O)c1cnn2cc(-c3cnn(C(F)F)c3)sc12 [Example 428, 2-(1-(difluoromethyl)-1H-pyrazol-4-yl)-N-(5-(2-(3,3-dimethylazetidin-1-yl)acetamido)-2-methylpyridin-3-yl)pyrazolo[5,1-b]thiazole-7-carboxamide] | > 7500 nM | 17.3 nM | 7.9 nM
Cc1ncc(NC(=O)CN2CC3(CCCCO3)C2)cc1NC(=O)c1cnn2cc(-c3cnn4c3CCC4)sc12 [Example 424, N-(5-(2-(5-oxa-2-azaspiro[3.5]nonan-2-yl)acetamido)-2-methylpyridin-3-yl)-2-(5,6-dihydro-4H-pyrrolo[1,2-b]pyrazol-3-yl)pyrazolo[5,1-b]thiazole-7-carboxamide] | > 7500 nM | 2.2 nM | 6.8 nM
Cc1ncc(C(=O)NCC2CCCN2C)cc1NC(=O)c1cnn2cc(-c3cnn4c3CCC4)sc12 (stereo not drawn) [Example 469, 2-(5,6-dihydro-4H-pyrrolo[1,2-b]pyrazol-3-yl)-N-(2-methyl-5-(((1-methylpyrrolidin-2-yl)methyl)carbamoyl)pyridin-3-yl)pyrazolo[5,1-b]thiazole-7-carboxamide] | > 7500 nM | 5.5 nM | 40.5 nM
Cc1ncc(NC(=O)CN2CCCC2(C)C)cc1NC(=O)c1cnn2cc(-c3cccnc3OCCF)sc12 [Example 448, N-(5-(2-(2,2-dimethylpyrrolidin-1-yl)acetamido)-2-methylpyridin-3-yl)-2-(2-(2-fluoroethoxy)pyridin-3-yl)pyrazolo[5,1-b]thiazole-7-carboxamide] | > 7500 nM | 1.8 nM | 2.4 nM
Cc1ncc(C(=O)NCC2CCCN2C)cc1NC(=O)c1cnn2cc(-c3cnn4c3OCCC4)sc12 (stereo not drawn) [Example 470, 2-(6,7-dihydro-5H-pyrazolo[5,1-b][1,3]oxazin-3-yl)-N-(2-methyl-5-(((1-methylpyrrolidin-2-yl)methyl)carbamoyl)pyridin-3-yl)pyrazolo[5,1-b]thiazole-7-carboxamide] | > 7500 nM | 6.8 nM | 109 nM
Cc1ncc(NC(=O)CN2CC3(CCCCO3)C2)cc1NC(=O)c1cnn2cc(-c3cnn4c3OCCC4)sc12 [Example 423, N-(5-(2-(5-oxa-2-azaspiro[3.5]nonan-2-yl)acetamido)-2-methylpyridin-3-yl)-2-(6,7-dihydro-5H-pyrazolo[5,1-b][1,3]oxazin-3-yl)pyrazolo[5,1-b]thiazole-7-carboxamide] | > 7500 nM | 3.7 nM | 15.8 nM
